The values below come from patent publication US5958943A, “[A]-anellated pyrrole derivatives and their use in pharmacology” (Merckle GmbH, priority 1994, dated 1999).

One assay has as its system mouse. Nature of the assay: Formalin analgesia test in the mouse p.o. Type of assay: in vivo. From the text:
The spectrum of efficacy of the compounds was also investigated using the following tests:
2) Formalin analgesia test in the mouse p.o., B. Rubin et al., Endocrinol.,49:429-439, 1951;

Another assay has as its target T1, 5-lipoxygenase (Bos taurus, UniProt F1MQ78).
T1 construct: endogenous in cells
T1 sequence (F1MQ78 1-674): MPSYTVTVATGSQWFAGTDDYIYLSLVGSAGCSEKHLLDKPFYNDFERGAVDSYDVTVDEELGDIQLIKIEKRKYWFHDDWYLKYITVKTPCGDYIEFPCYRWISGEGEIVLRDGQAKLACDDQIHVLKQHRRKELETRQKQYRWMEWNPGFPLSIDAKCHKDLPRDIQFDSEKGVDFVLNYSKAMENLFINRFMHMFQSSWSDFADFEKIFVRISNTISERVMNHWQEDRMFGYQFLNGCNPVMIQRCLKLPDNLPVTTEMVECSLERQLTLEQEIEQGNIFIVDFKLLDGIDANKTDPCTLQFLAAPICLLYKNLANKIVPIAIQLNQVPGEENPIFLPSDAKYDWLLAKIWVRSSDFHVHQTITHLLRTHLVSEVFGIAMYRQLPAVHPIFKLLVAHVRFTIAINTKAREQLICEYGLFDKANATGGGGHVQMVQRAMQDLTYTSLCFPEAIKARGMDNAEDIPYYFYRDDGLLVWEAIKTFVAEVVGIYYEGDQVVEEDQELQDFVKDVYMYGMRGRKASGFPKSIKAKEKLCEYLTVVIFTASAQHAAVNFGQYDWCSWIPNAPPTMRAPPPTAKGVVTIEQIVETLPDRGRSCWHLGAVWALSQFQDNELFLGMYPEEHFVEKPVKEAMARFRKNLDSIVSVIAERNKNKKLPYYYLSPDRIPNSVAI
Nature of the assay: Inhibition of 5-lipoxygenase (LO), according to Dannhardt et al. Type of assay: biochemical. The note with it: Table 1 column IC50 LO/CO, first value. An excerpt: (§1) The efficacy of the compounds according to the invention can be determined from the inhibition of 5-lipoxygenase or cyclooxygenase. Experiments have be carried out according to Dannhardt et al., J. Pharm. Pharmacol. 1992, 44: 419-424.

A further assay concerns the target T2, cyclooxygenase (Bos taurus, UniProt O62664).
T2 construct: endogenous in cells
T2 sequence (O62664 25-600): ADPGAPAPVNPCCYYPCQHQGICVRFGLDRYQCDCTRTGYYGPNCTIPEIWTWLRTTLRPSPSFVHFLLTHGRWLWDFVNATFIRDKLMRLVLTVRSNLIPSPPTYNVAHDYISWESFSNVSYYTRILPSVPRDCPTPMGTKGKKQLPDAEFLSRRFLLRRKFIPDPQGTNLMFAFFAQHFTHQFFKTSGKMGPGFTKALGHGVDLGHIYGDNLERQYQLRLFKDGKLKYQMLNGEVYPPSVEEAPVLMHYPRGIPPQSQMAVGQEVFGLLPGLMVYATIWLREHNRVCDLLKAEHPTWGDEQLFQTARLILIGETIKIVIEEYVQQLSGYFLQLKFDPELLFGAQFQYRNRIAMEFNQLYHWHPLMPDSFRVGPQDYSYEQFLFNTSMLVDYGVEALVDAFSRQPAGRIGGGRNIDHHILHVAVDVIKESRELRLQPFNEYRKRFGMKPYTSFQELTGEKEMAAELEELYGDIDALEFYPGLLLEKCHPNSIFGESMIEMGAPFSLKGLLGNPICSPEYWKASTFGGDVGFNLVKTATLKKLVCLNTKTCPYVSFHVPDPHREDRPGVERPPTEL
As to the kind of experiment: Inhibition of cyclooxygenase (CO), according to Dannhardt et al. Type of assay: biochemical. The note with it: Table 1 column IC50 LO/CO, second value.
Excerpt: as §1

As to `CC1(C)Cc2c(-c3ccccc3)c(-c3ccc(Cl)cc3)c(CC(=O)O)n2C1` [corresponding 4-chlorophenyl derivative, reference compound], in the assay on mouse (po, formalin analgesia model of the mouse, comparison compound, read-out: MED), the minimal effective dose was found to be 100 mg/kg.

As a reminder, the IC50 is the midpoint of a concentration-inhibition curve. Consider `CC1(C)Cc2c(-c3ccccc3)c(-c3ccc(Cl)s3)c(CC(=O)O)n2C1` [Example 1], for which, in the assay with mouse (in vivo, compared with the corresponding 4-chlorophenyl derivative), the “times more analgesically effective than the corresponding 4-chlorophenyl derivative” value was 10 times. In addition, the IC50 against 5-lipoxygenase stood at 400 nM; on cyclooxygenase, 200 nM.
